The results in this text go back to publication PMC6572003 (The Journal of General Physiology, 2019).

Molecules are shown by their SMILES. Changes are numbered by the printed parent chain.

What all share (experiment): two-electrode voltage clamp, Xenopus oocytes, current integral
Common to all, as to assay type: cell-based
For orientation: In two-electrode clamp one electrode senses voltage and the other passes current.

Assay [1] addresses T1, human P2X4 (Homo sapiens, UniProt Q99571).
T1 sequence (Q99571 1-388): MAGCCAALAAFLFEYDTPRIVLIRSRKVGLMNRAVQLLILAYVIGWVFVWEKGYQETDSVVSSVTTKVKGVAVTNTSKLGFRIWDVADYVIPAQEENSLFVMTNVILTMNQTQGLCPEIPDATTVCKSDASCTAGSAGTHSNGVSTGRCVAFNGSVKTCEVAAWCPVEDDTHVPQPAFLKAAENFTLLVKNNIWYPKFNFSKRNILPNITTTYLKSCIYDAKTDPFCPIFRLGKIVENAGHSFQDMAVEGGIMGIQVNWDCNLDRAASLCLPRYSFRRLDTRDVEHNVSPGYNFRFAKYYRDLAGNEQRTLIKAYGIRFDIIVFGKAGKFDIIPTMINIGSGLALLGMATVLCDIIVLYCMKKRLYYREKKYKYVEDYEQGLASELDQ
The conditions noted are these: read-out: % inhibition at 250 μM.

Assay [2] addresses T1, human P2X4.
Assay [3] concerns the target T2, human P2X4 (Homo sapiens, UniProt Q99571, E51A).
T2 sequence (Q99571 1-388 E51A): T1 sequence (Q99571 1-388) with E51A
The following applies: read-out: % inhibition at 250 μM.

The target of assay [4] is T3, human P2X4 (Homo sapiens, UniProt Q99571, D331A).
T3 sequence (Q99571 1-388 D331A): T1 sequence (Q99571 1-388) with D331A
The conditions noted are these: read-out: % inhibition at 250 μM.

In assay [5] the target is T4, human P2X4 (Homo sapiens, UniProt Q99571, M336A).
T4 sequence (Q99571 1-388 M336A): T1 sequence (Q99571 1-388) with M336A
The conditions noted are these: read-out: % inhibition at 250 μM.

The target of assay [6] is T5, human P2X4 (Homo sapiens, UniProt Q99571, W50A).
T5 sequence (Q99571 1-388 W50A): T1 sequence (Q99571 1-388) with W50A
The conditions noted are these: read-out: % inhibition at 250 μM.

Assay [7] deals with T1, human P2X4. The source holds these as a separate data set.

`C[C@H](CCC(=O)O)[C@H]1CC[C@H]2[C@@H]3CC[C@@H]4C[C@H](O)CC[C@]4(C)[C@H]3C[C@H](O)[C@]12C` [DCA, deoxycholic acid]: the inhibition at 250 µM on human P2X4 [1] worked out at 73 ± 2%.
The same measure, in the same setting: then `C[C@H](CCC(=O)NCCS(=O)(=O)O)[C@H]1CC[C@H]2[C@@H]3[C@H](O)C[C@@H]4C[C@H](O)CC[C@]4(C)[C@H]3CC[C@]12C` [t-CDCA, tauro-chenodeoxycholic acid], with 25 ± 9%.
In turn, `C[C@H](CCC(=O)NCCS(=O)(=O)O)[C@H]1CC[C@H]2[C@@H]3CC[C@@H]4C[C@H](O)CC[C@]4(C)[C@H]3C[C@H](O)[C@]12C` [t-DCA, tauro-deoxycholic acid] displayed a half-inhibitory concentration (IC50) against human P2X4 [2] of about 160 µM. Besides, the inhibition at 250 µM at human P2X4 [3] turned out to be 74%; at human P2X4 [4], 38%; at human P2X4 [5], 22%; on human P2X4 [6], 63%.
In the case of `Nc1ncnc2c1ncn2[C@@H]1O[C@H](COP(=O)(O)OP(=O)(O)OP(=O)(O)O)[C@@H](O)[C@H]1O` [ATP], a half-maximal response on human P2X4 [7] (EC50) required 4.8 ± 1.2 µM.

As usually defined, the inhibition is the change of the read-out against control, counted positive when it falls. The IC50 is the point on the concentration scale where inhibition reaches its midpoint. By EC50 is commonly meant the concentration that produces a half-maximal response.
